Source: PMC10997755, “Discovery of a small-molecule inhibitor that traps Polθ on DNA and synergizes with PARP inhibitors” (Nature Communications, 2024)
Values joined by “and” are separate entries in the source; they are usually repeats but may differ in a detail not shown here. Equal entries are not always repeated.

Columns and labels:
[1] = Metabolic stability in liver microsomes; type: in vitro ADME; conditions: read-out: t1/2 liver microsomes
[2] = tested on: CAPAN-1 cells; test: Clonogenic assay; type: cell-based; conditions: for percent suvival: Capan-1 cells
Method in brief: (§1)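 Cells seeded at low density (300–1000 per well, by plate size and genotype), medium changed every 2 days, colonies grown 10–12 days. Fixed in water:ethanol:acetic acid, stained with 0.5% crystal violet, then counted; IC50 from ≥3 independent experiments, mean ± SEM.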

[3] = tested on: MDA-MB-231 cells; test: Clonogenic assay; type: cell-based; conditions: for percent suvival: Fig. 2f
Method in brief: as §1

[4] = tested on: PE01 ovarian cancer cells; test: Clonogenic assay; type: cell-based; conditions: clonogenic survival
Method in brief: as §1

[5] = tested on: Polα; test: Primer extension by recombinant Pols (selectivity); type: biochemical
[6] = tested on: DLD1 BRCA2 -/- cells; test: Apoptosis assay (FITC active caspase-3); type: cell-based; set-up: FITC+ AVG / FITC- AVG: unit not given here; conditions: for % population FITC Caspase-3 Negative / % population FITC Caspase-3 Positive: bar matched by sums to 100; for FITC+ AVG / FITC- AVG: DLD1 BRCA2 null
Method: DLD1 BRCA2 -/-, DLD1 Parental cells were plated on six well plates and treated with RTX-161 1 day after plating. Medium was replaced every 2 days with RTX-161. Cells were harvested 6 days after plating for apoptosis assay using FITC active caspase-3 apoptosis kit (BD biosciences, catalog # 550480) according to manufacturer’s instructions and analyzed by FACS with Celesta (Becton Dickinson).

[7] = tested on: VC8 cells; test: Clonogenic assay; type: cell-based, Chinese hamster; conditions: for percent suvival: VC8 cells
Method: Cells were plated on six or twelve or twenty-four well plates. In six well plate, 1000 cells/ well of BRCA2 -/-, BRCA1 -/-, PALB2 mut and 500 cells/ well of wildtype pair was plated; In twelve well plate, 600 cells/ well of BRCA2 -/-, BRCA1 -/-, PALB2 mut and 400 cells/ well of wildtype pair was plated; In twenty-four well plate, 500 cells/ well of BRCA2 -/-, BRCA1 -/-, PALB2 mut and 300 cells/ well of wildtype pair was plated. For MEFs, 300 cells per well in six-well plate were seeded. The medium was replaced every 2 days until the colonies were ready for staining in 10–12 days. For staining: Medium was removed from plates, and cells were rinsed with PBS. Fixation was carried out with—Water: Ethanol: Acetic acid (5:4:1) for 30 min followed by staining of colonies with 0.5% crystal violet in Water: Ethanol (3:2) for 2 h at room temperature. The plates were rinsed with water and left for drying overnight at room temperature. Colonies were then counted and IC50 was calculated using results from 3 or more independent experiments. Response curves are shown as mean colony formation +/- S.E.M.
Data are expressed as mean ± SEM from at least 3 independent experiments with triplicates for each condition unless stated otherwise. When conducting comparison between two groups, two-tailed unpaired t-test was used. Significance was assumed at p < 0.05. Asterisks in the figures indicate significance, ^∗p < 0.05, ^∗∗p < 0.01, ^∗∗∗p < 0.001. Combenefit® software version 2.021 was used to perform synergy analyses for drug combinations between RTx-161 and PARPi. GraphPad Prism 9 software was used to calculate IC50.

CN(C(=O)Oc1ccc(C(F)(F)F)cc1C(F)(F)F)c1ccc(F)cc1 [MC160385]
half-life [1]: 6.2 min

CN(C(=O)Oc1c(N2CCN(CCO)C2=O)cc(C(F)(F)F)cc1C(F)(F)F)c1ccc(F)cc1 [RTx-161]
percent suvival ([2]; RTX-161 2 micro M + ola 0.041 micro M, experiment block 1 (c0-c9)): 16.0976% | percent suvival ([2]; RTX-161 2 micro M + ola 0.041 micro M, experiment block 2 (c10-c19)): 65.2438% | percent suvival ([2]; RTX-161 2 micro M + ola 0.041 micro M, experiment block 3 (c20-c29)): 82.5985% | percent suvival ([2]; RTX-161 2 micro M + ola 0.123 micro M, experiment block 1 (c0-c9)): 6.496% | percent suvival ([2]; RTX-161 2 micro M + ola 0.123 micro M, experiment block 2 (c10-c19)): 35.6906% | percent suvival ([2]; RTX-161 2 micro M + ola 0.123 micro M, experiment block 3 (c20-c29)): 71.0728% | percent suvival ([2]; RTX-161 2 micro M + ola 0.37 micro M, experiment block 1 (c0-c9)): 4.656% | percent suvival ([2]; RTX-161 2 micro M + ola 0.37 micro M, experiment block 2 (c10-c19)): 25.2846% | percent suvival ([2]; RTX-161 2 micro M + ola 0.37 micro M, experiment block 3 (c20-c29)): 54.8012% | percent suvival ([2]; RTX-161 2 micro M + ola 1.11 micro M, experiment block 1 (c0-c9)): 3.463% | percent suvival ([2]; RTX-161 2 micro M + ola 1.11 micro M, experiment block 2 (c10-c19)): 19.041% | percent suvival ([2]; RTX-161 2 micro M + ola 1.11 micro M, experiment block 3 (c20-c29)): 23.1621% | percent suvival ([2]; RTX-161 2 micro M, ola 0.00 micro M, experiment block 1 (c0-c9)): 102.855% | percent suvival ([2]; RTX-161 2 micro M, ola 0.00 micro M, experiment block 2 (c10-c19)): 79.1879% | percent suvival ([2]; RTX-161 2 micro M, ola 0.00 micro M, experiment block 3 (c20-c29)): 91.4122% | percent suvival ([2]; RTX-161 6 micro M + ola 0.041 micro M, experiment block 1 (c0-c9)): 15.5586% | percent suvival ([2]; RTX-161 6 micro M + ola 0.041 micro M, experiment block 2 (c10-c19)): 45.4723% | percent suvival ([2]; RTX-161 6 micro M + ola 0.041 micro M, experiment block 3 (c20-c29)): 68.5869% | percent suvival ([2]; RTX-161 6 micro M + ola 0.123 micro M, experiment block 1 (c0-c9)): 6.432% | percent suvival ([2]; RTX-161 6 micro M + ola 0.123 micro M, experiment block 2 (c10-c19)): 32.777% | percent suvival ([2]; RTX-161 6 micro M + ola 0.123 micro M, experiment block 3 (c20-c29)): 59.0951% | percent suvival ([2]; RTX-161 6 micro M + ola 0.37 micro M, experiment block 1 (c0-c9)): 6.745% | percent suvival ([2]; RTX-161 6 micro M + ola 0.37 micro M, experiment block 2 (c10-c19)): 21.1222% | percent suvival ([2]; RTX-161 6 micro M + ola 0.37 micro M, experiment block 3 (c20-c29)): 41.2416% | percent suvival ([2]; RTX-161 6 micro M + ola 1.11 micro M, experiment block 1 (c0-c9)): 6.364% | percent suvival ([2]; RTX-161 6 micro M + ola 1.11 micro M, experiment block 2 (c10-c19)): 17.1679% | percent suvival ([2]; RTX-161 6 micro M + ola 1.11 micro M, experiment block 3 (c20-c29)): 14.1224% | percent suvival ([2]; RTX-161 6 micro M, ola 0.00 micro M, experiment block 1 (c0-c9)): 109.215% | percent suvival ([2]; RTX-161 6 micro M, ola 0.00 micro M, experiment block 2 (c10-c19)): 55.8784% | percent suvival ([2]; RTX-161 6 micro M, ola 0.00 micro M, experiment block 3 (c20-c29)): 75.1407% | percent suvival ([2]; RTX-161 18 micro M + ola 0.041 micro M, experiment block 1 (c0-c9)): 10.9588% | percent suvival ([2]; RTX-161 18 micro M + ola 0.123 micro M, experiment block 1 (c0-c9)): 6.3155% | percent suvival ([2]; RTX-161 18 micro M + ola 0.37 micro M, experiment block 1 (c0-c9)): 7.064% | percent suvival ([2]; RTX-161 18 micro M + ola 1.11 micro M, experiment block 1 (c0-c9)): 6.846% | percent suvival ([2]; RTX-161 18 micro M, ola 0.00 micro M, experiment block 1 (c0-c9)): 83.7737% | combination with Olaparib ([2]; clonogenic survival): significantly reduced cellular resistance to Olaparib | percent suvival ([3]; Rtx-161 5 microM + Talazoparib 12.5 nano M, experiment block 1 (c0-c7)): 68.1979% | percent suvival ([3]; Rtx-161 5 microM + Talazoparib 12.5 nano M, experiment block 2 (c8-c15)): 63.9241% | percent suvival ([3]; Rtx-161 5 microM + Talazoparib 12.5 nano M, experiment block 3 (c16-c23)): 59.2391% | percent suvival ([3]; Rtx-161 5 microM + Talazoparib 25 nano M, experiment block 1 (c0-c7)): 45.2297% | percent suvival ([3]; Rtx-161 5 microM + Talazoparib 25 nano M, experiment block 2 (c8-c15)): 50% | percent suvival ([3]; Rtx-161 5 microM + Talazoparib 25 nano M, experiment block 3 (c16-c23)): 34.2391% | percent suvival ([3]; Rtx-161 5 microM + Talazoparib 50 nano M, experiment block 1 (c0-c7)): 12.7208% | percent suvival ([3]; Rtx-161 5 microM + Talazoparib 50 nano M, experiment block 2 (c8-c15)): 18.9873% | percent suvival ([3]; Rtx-161 5 microM + Talazoparib 50 nano M, experiment block 3 (c16-c23)): 15.7609% | percent suvival ([3]; Rtx-161 5 microM, Talazoparib 0 nano M, experiment block 1 (c0-c7)): 93.6396% | percent suvival ([3]; Rtx-161 5 microM, Talazoparib 0 nano M, experiment block 2 (c8-c15)): 98.7342% | percent suvival ([3]; Rtx-161 5 microM, Talazoparib 0 nano M, experiment block 3 (c16-c23)): 88.587% | combination with Talazoparib ([3]; clonogenic survival, HR-proficient cells): modestly potentiated the effects of Talazoparib | combination with Olaparib [4]: strongly potentiated the effects of Olaparib | single agent activity [4]: little to no activity as a single agent | % Full Extension ([5]; Pol Alpha): 84.67% | % Inhibition Compared to Control ([5]; Pol Alpha): -1.20% | % Relative Maximum Extension ([5]; Pol Alpha): 101.20% | inhibition of primer extension ([5]; selectivity panel, Pol named in Supplementary Fig. 1h): no inhibition | % population FITC Caspase-3 Negative ([6]; 10 uM RTX-161): 92% | % population FITC Caspase-3 Positive ([6]; 10 uM RTX-161): 8% | % population FITC Caspase-3 Negative ([6]; 20 uM RTX-161): 90% | % population FITC Caspase-3 Positive ([6]; 20 uM RTX-161): 10% | FITC+ AVG ([6]; 10 uM, left block of sheet): 8.433 | FITC- AVG ([6]; 10 uM, left block of sheet): 91.5667 | FITC+ AVG ([6]; 10 uM, middle block of sheet): 12.1 | FITC- AVG ([6]; 10 uM, middle block of sheet): 87.9 | FITC+ AVG ([6]; 10 uM, right block of sheet): 12.3333 | FITC- AVG ([6]; 10 uM, right block of sheet): 87.6667 | FITC+ AVG ([6]; 20 uM, left block of sheet): 9.633 | FITC- AVG ([6]; 20 uM, left block of sheet): 90.3667 | FITC+ AVG ([6]; 20 uM, middle block of sheet): 13.8333 | FITC- AVG ([6]; 20 uM, middle block of sheet): 86.1667 | FITC+ AVG ([6]; 20 uM, right block of sheet): 13.3333 | FITC- AVG ([6]; 20 uM, right block of sheet): 86.6667 | apoptosis ([6]; versus parental): selectively induced PARP cleavage and apoptosis | percent suvival ([7]; RTX-161 1 micro M + ola 30.00 nano M): 0% | percent suvival ([7]; RTX-161 1 micro M, ola 0.00 nano M): 79.4521% and 92.4444% and 101.498% | percent suvival ([7]; RTX-161 3 micro M + ola 30.00 nano M): 0% | percent suvival ([7]; RTX-161 3 micro M, ola 0.00 nano M): 62.3288% and 70.2222% and 85.0187% | combination with Olaparib ([7]; clonogenic survival): significantly reduced cellular resistance to Olaparib
